Read-outs that look alike come from different tables or passages of the source. Ends that are not written are not given here.
Tests used:
[1] = molecular target: T1, DRB4*0101 (Homo sapiens, UniProt P01903+P13762, G164S); assay: Class II peptide-binding assay DRB4*0101 (DRw53)
T1 construct: expressed in transfected cells; host or cells: transfected fibroblasts L257.6

[2] = molecular target: T2, DRB1*0405 (Homo sapiens, UniProt P01903+P01911, A100R/A169T/D86S/F76Y/I96L/K127E/L162R/M171V/N62H/P40V/Q125Y/R42H/S133A/S149N/S66Y/V115G/V209L/W38E); assay: Class II peptide-binding assay DRB1*0405 (DR4w15)
T2 construct: Epstein-Barr virus (EBV) transformed homozygous cell lines were used as sources of human HLA Class II molecules; endogenous in cells; host or cells: KT3 (EBV-transformed homozygous B cell line)

[3] = molecular target: T3, DRB1*0301 (Homo sapiens, UniProt P01903+P01911, A100K/A102G/A103R/A169T/F55Y/I96L/K41T/L162R/M171V/P40S/Q125H/Q178H/Q39Y/R42S/S66N/T106N/T262R/W38E/Y61H); assay: Class II peptide-binding assay DRB1*0301 (DR3)
T3 construct: Epstein-Barr virus (EBV) transformed homozygous cell lines were used as sources of human HLA Class II molecules; endogenous in cells; host or cells: MAT (EBV-transformed homozygous B cell line)
T3 sequence (P01903 26-254, other chains not shown): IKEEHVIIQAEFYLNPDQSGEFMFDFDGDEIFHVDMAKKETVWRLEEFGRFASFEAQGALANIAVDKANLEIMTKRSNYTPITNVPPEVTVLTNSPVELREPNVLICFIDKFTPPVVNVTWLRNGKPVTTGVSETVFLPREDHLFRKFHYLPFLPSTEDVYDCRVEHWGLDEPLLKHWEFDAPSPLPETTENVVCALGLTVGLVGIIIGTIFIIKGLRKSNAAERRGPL

[4] = molecular target: T4, DRB1*0401 (Homo sapiens, UniProt P01903+P01911, A100K/A169T/F76Y/I96L/K127E/L162R/M171V/N62H/P40V/Q125Y/R42H/S133A/S149N/S66Y/V115G/V209L/W38E); assay: Class II peptide-binding assay DRB1*0401 (DR4w4)
T4 construct: Epstein-Barr virus (EBV) transformed homozygous cell lines were used as sources of human HLA Class II molecules; endogenous in cells; host or cells: PREISS (EBV-transformed homozygous B cell line)

[5] = molecular target: DRB1*0901 (Homo sapiens, UniProt P01903+P01911, A100R/A103E/D57H/D86V/F55Y/F60I/F76Y/I96F/K127E/L162R/M171V/P40D/Q125H/Q99R/R33Q/R42F/S133A/S66N/T210M/V115G/W38K/Y107V/Y59G/Y89S); assay: Class II peptide-binding assay DRB1*0901 (DR9)
[6] = molecular target: T5, DRB1*1302 (Homo sapiens, UniProt P01903+P01911, A100E/A169T/K41T/L162R/M171V/P40S/Q125H/Q178H/Q39Y/Q99D/R42S/S66N/T262R/V115G/W38E/Y61H); assay: Class II peptide-binding assay DRB1*1302 (DR6w19)
T5 construct: Epstein-Barr virus (EBV) transformed homozygous cell lines were used as sources of human HLA Class II molecules; endogenous in cells; host or cells: HO301 / H0301 (EBV-transformed homozygous B cell line)
T5 sequence (P01903 26-254, other chains not shown): as above

[7] = molecular target: T6, DRB1*1101 (Homo sapiens, UniProt P01903+P01911, A100R/A169T/A87E/I96F/K41T/L162R/M171V/P40S/Q125H/Q178H/Q39Y/Q99D/R42S/S66Y/T262R/V115G/W38E); assay: Class II peptide-binding assay DRB1*1101 (DR5w11)
T6 construct: Epstein-Barr virus (EBV) transformed homozygous cell lines were used as sources of human HLA Class II molecules; endogenous in cells; host or cells: SWEIG (EBV-transformed homozygous B cell line)
T6 sequence (P01903 26-254, other chains not shown): as above

[8] = molecular target: T7, DRB1*0101 (Homo sapiens, UniProt P01903+P01911, A100R/D57E/F55L/F60I/F76Y/I96L/L162R/M171V/P40L/Q125E/R42F/V115G/Y59C); assay: Class II peptide-binding assay DRB1*0101 (DR1)
T7 construct: Epstein-Barr virus (EBV) transformed homozygous cell lines were used as sources of human HLA Class II molecules; endogenous in cells; host or cells: LG2 (EBV-transformed homozygous B cell line)

[9] = molecular target: T8, DRB5*0101 (Homo sapiens, UniProt P01903+Q30154); assay: Class II peptide-binding assay DRB5*0101 (DR2w2a)
T8 construct: Epstein-Barr virus (EBV) transformed homozygous cell lines were used as sources of human HLA Class II molecules; endogenous in cells; host or cells: GM3107 (EBV-transformed homozygous B cell line)

[10] = molecular target: T9, DRB1*0404 (Homo sapiens, UniProt P01903+P01911, A100R/A169T/F76Y/I96L/K127E/L162R/M171V/N62H/P40V/Q125Y/R42H/S133A/S149N/S66Y/V209L/W38E); assay: Class II peptide-binding assay DRB1*0404 (DR4w14); settings: known HLA-DR and DQ restricted epitopes, Table 6
T9 construct: Epstein-Barr virus (EBV) transformed homozygous cell lines were used as sources of human HLA Class II molecules; endogenous in cells; host or cells: BIN40 (EBV-transformed homozygous B cell line)

[11] = molecular target: T10, DRB1*0802 (Homo sapiens, UniProt P01903+P01911, A100R/A103L/A169T/F76Y/H45Y/I96F/K41T/L162R/M171V/P40S/Q125H/Q178H/Q39Y/Q99D/R218S/R42G/S66Y/V115G/W38E); assay: Class II peptide-binding assay DRB1*0802 (DR8w2)
T10 construct: Epstein-Barr virus (EBV) transformed homozygous cell lines were used as sources of human HLA Class II molecules; endogenous in cells; host or cells: OLL (EBV-transformed homozygous B cell line)

[12] = molecular target: T11, DRB1*0701 (Homo sapiens, UniProt P01903+P01911, A100R/A102G/A103Q/D57E/D86V/E43K/F76Y/K127E/L162R/M171V/P40G/Q125H/Q99D/R33Q/R42Y/R54Q/S133A/S66F/T210M/V115G/Y107V/Y59L/Y89S); assay: Class II peptide-binding assay DRB1*0701 (DR7); settings: known HLA-DR and DQ restricted epitopes, Table 6
T11 construct: Epstein-Barr virus (EBV) transformed homozygous cell lines were used as sources of human HLA Class II molecules; endogenous in cells; host or cells: PITOUT (EBV-transformed homozygous B cell line)

[13] = molecular target: T12, DRB3*0101 (Homo sapiens, UniProt P01903+P79483); assay: Class II peptide-binding assay DRB3*0101 (DR52a)
T12 construct: expressed in transfected cells; host or cells: transfected fibroblasts TR81.19

[14] = known HLA-DR and DQ restricted epitopes, Table 6
[15] = inhibition of radiolabeled probe binding, — read as no appreciable binding

DTGRKLFRVYSNFLR
IC50 [1]: 1130 nM
IC50 [2]: 39 nM
IC50 [3]: 1280 nM
IC50 [4]: 46 nM
IC50 [5]: 161 nM
IC50 [6]: 7.5 nM
IC50 [7]: 26 nM
IC50 [8]: 18 nM
IC50 [9]: 12 nM

FNNFTVSFWLRVPKVSASHLEQY
IC50 [1]: 1680 nM
IC50 [10]: 4540 nM
IC50 [3, 14]: > 20000 nM
IC50 [11]: 581 nM
IC50 [12]: 57 nM
IC50 [4, 14]: 93 nM
IC50 [6, 14]: 6370 nM
IC50 [7, 14]: 8.3 nM
IC50 [8]: 417 nM
IC50 [9]: 2860 nM
IC50 [13]: 2820 nM

LLKDLEEGIQTLMGR
IC50 [1, 15]: 3710 nM

LLYCFRKDMDKVETF
IC50 [13, 15]: 6940 nM

LWQLNGRLEYCLKDR
IC50 ([13]; IFNb 15-mer peptides, Table 5D): 6780 nM

NHLKTVLEEKLEKED [NHLKTVLEEKLEKED]
IC50 ([1]; IFNb 15-mer peptides, Table 5D): 1390 nM
IC50 ([9]; IFNb 15-mer peptides, Table 5D): 6760 nM

TSLCFSESIPTPSNR
IC50 [13, 15]: 22600 nM

VLEEKLEKEDFTRGK
IC50 ([1]; IFNb 15-mer peptides, Table 5D): 19100 nM
IC50 ([9]; IFNb 15-mer peptides, Table 5D): 4610 nM
IC50 ([13]; IFNb 15-mer peptides, Table 5D): 1390 nM

YKTIAYDEEARR
IC50 [1]: > 20000 nM
IC50 [9]: > 20000 nM
IC50 [13]: > 20000 nM

From patent US20070184519A1, “Peptides, polypeptides, and proteins of reduced immunogenicity and methods for their production” (priority 2003, published 2007)
